Results as given in patent US11590139B2, “Substituted aminopurine compounds, compositions thereof, and methods of treatment therewith” (Signal Pharmaceuticals, LLC, priority 2014, dated 2023).

System: Lox-IMVI melanoma cell line
Assay: Lox-IMVI anti-proliferative assay (growth inhibition, Cell Titer-Glo)
Format: cell-based, human
Conditions: Homo sapiens; IC50 activity level in the cell-based Lox-IMVI anti-proliferative assay; read-out: Activity
Protocol: Determination of the Growth Inhibitory Effect of Aminopurine Compounds. The Lox-IMVI melanoma cell line (Source: NCI-DCTD, catalog No. 0507283) was maintained and tested in RPMI+10% FBS. The seeding density for the cell line was optimized to ensure assay linearity in 384-well plates.
Increasing concentrations of Aminopurine Compound (0.5 nM to 10 μM) were spotted in a 10-point serial dilution fashion (3-fold dilution) in duplicate within the plate via an acoustic dispenser (EDC ATS-100) into an empty 384-well plate. The dimethyl sulfoxide (DMSO) concentration was kept constant for a final assay concentration of 0.2% DMSO. Prior to testing, cells were grown and expanded in culture flasks to provide sufficient amounts of starting material. Cells were then diluted to their desired densities and added directly to the compound-spotted 384-well plates. Cells were allowed to grow for 72 hours in 5% CO2 at 37° C. At the time when exposure of cells to compound began (t0), initial cell number was assessed via a viability assay (Cell Titer-Glo) by quantifying the level of luminescence generated by adenosine-5′-triphosphate (ATP) present in viable cells. After 72 hours, cell viability of compound-treated cells was assessed via Cell Titer-Glo Luminescent Cell Viability Assay (Promega Corporation, Madison, Wis.) and read for luminescence.
All data was normalized and represented as a percentage of the DMSO-treated control cells after 72 h. Results were expressed as a IC50 value, which is the compound concentration required to inhibit 50% of the untreated control cells during the 72 hours of treatment.
A Four Parameter Logistic Model (Sigmoidal Dose-Response Model) was used to determine the compound's IC50. y=(A+((B−A)/(1+((C/x)^D))))
wherein: • A=YMin • B=YMax • C=EC50 • D=Hill Slope • IC50 is the compound concentration when Y=50% of DMSO control • Y=Luminescence unit
All inhibition curves were processed and evaluated using XLFit and Activity Base (IDBS).

Structure (SMILES) | IC50 [nM]
NC(=O)[C@H]1CC[C@@H](n2c(Nc3c(F)cc(F)cc3F)nc3cnc(NC4CCOCC4)nc32)CC1 [Example 11] | < 250
NC(=O)[C@H]1CC[C@@H](n2c(Nc3cc(F)c(F)cc3F)nc3cnc(NC4CCOCC4)nc32)CC1 [Example 58, (1s,4s)-4-(2-(tetrahydro-2H-pyran-4-ylamino)-8-(2,4,5-trifluorophenylamino)-9H-purin-9-yl)cyclohexanecarboxamide] | 500 to 1000
CC(C)Nc1ncc2nc(Nc3c(Cl)cc(Cl)cc3Cl)n([C@H]3CC[C@@H](C(N)=O)CC3)c2n1 [Example 59, (1s,4s)-4-(2-(isopropylamino)-8-(2,4,6-trichlorophenylamino)-9H-purin-9-yl)cyclohexanecarboxamide] | 500 to 1000
NC(=O)[C@H]1CC[C@@H](n2c(Nc3cc(Cl)c(Cl)cc3Cl)nc3cnc(NC4CCOCC4)nc32)CC1 [Example 65, (1s,4s)-4-(2-(tetrahydro-2H-pyran-4-ylamino)-8-(2,4,5-trichlorophenylamino)-9H-purin-9-yl)cyclohexanecarboxamide] | > 1000
NC(=O)[C@H]1CC[C@@H](n2c(Nc3ccc(F)c(F)c3F)nc3cnc(NC4CCOCC4)nc32)CC1 [Example 66, (1s,4s)-4-(2-(tetrahydro-2H-pyran-4-ylamino)-8-(2,3,4-trifluorophenylamino)-9H-purin-9-yl)cyclohexanecarboxamide] | 500 to 1000
NC(=O)[C@H]1CC[C@@H](n2c(Nc3c(Cl)cc(Cl)cc3Cl)nc3cnc(NC4CCCC4)nc32)CC1 [Example 68, (1s,4s)-4-(2-(cyclopentylamino)-8-(2,4,6-trichlorophenylamino)-9H-purin-9-yl)cyclohexanecarboxamide] | 500 to 1000
NC(=O)[C@H]1CC[C@@H](n2c(Nc3cc(F)c(Cl)cc3F)nc3cnc(NC4CCOCC4)nc32)CC1 [Example 70, (1s,4s)-4-(8-(4-chloro-2,5-difluorophenylamino)-2-(tetrahydro-2H-pyran-4-ylamino)-9H-purin-9-yl)cyclohexanecarboxamide] | 500 to 1000
Cc1cc(Nc2nc3cnc(NC4CCOCC4)nc3n2[C@H]2CC[C@@H](C(N)=O)CC2)c(F)cc1Cl [Example 71, (1s,4s)-4-(8-(4-chloro-2-fluoro-5-methylphenylamino)-2-(tetrahydro-2H-pyran-4-ylamino)-9H-purin-9-yl)cyclohexanecarboxamide] | > 1000
NC(=O)[C@H]1CC[C@@H](n2c(Nc3ccc(Cl)c(Cl)c3Cl)nc3cnc(NC4CCOCC4)nc32)CC1 [Example 73, (1s,4s)-4-(2-(tetrahydro-2H-pyran-4-ylamino)-8-(2,3,4-trichlorophenylamino)-9H-purin-9-yl)cyclohexanecarboxamide] | > 1000
Cc1cc(F)cc(Cl)c1Nc1nc2cnc(NC3CCOCC3)nc2n1[C@H]1CC[C@@H](C(N)=O)CC1 [Example 74, (1s,4s)-4-(8-(2-chloro-4-fluoro-6-methylphenylamino)-2-(tetrahydro-2H-pyran-4-ylamino)-9H-purin-9-yl)cyclohexanecarboxamide] | > 1000
Cc1cc(Cl)cc(F)c1Nc1nc2cnc(NC3CCOCC3)nc2n1[C@H]1CC[C@@H](C(N)=O)CC1 [Example 75, (1s,4s)-4-(8-(4-chloro-2-fluoro-6-methylphenylamino)-2-(tetrahydro-2H-pyran-4-ylamino)-9H-purin-9-yl)cyclohexanecarboxamide] | > 1000
CO[C@H]1CC[C@H](Nc2ncc3nc(Nc4c(Cl)cc(Cl)cc4Cl)n([C@H]4CC[C@@H](C(N)=O)CC4)c3n2)CC1 [Example 77, (1s,4s)-4-(2-((1r,4r)-4-methoxycyclohexylamino)-8-(2,4,6-trichlorophenylamino)-9H-purin-9-yl)cyclohexanecarboxamide] | 500 to 1000
NC(=O)[C@H]1CC[C@@H](n2c(Nc3c(Cl)cc(Cl)cc3Cl)nc3cnc(N[C@H]4CC[C@H](O)CC4)nc32)CC1 [Example 78, (1s,4s)-4-(2-((1r,4r)-4-hydroxycyclohexylamino)-8-(2,4,6-trichlorophenylamino)-9H-purin-9-yl)cyclohexanecarboxamide] | > 1000

Continued, values first:

IC50 [nM] | Structure (SMILES)
< 250 | NC(=O)[C@H]1CC[C@@H](n2c(Nc3c(F)cc(Cl)cc3Cl)nc3cnc(NC4CCOCC4)nc32)CC1 [Example 40]
> 1000 | NC(=O)[C@H]1CC[C@@H](n2c(Nc3c(F)cccc3F)nc3cnc(NC4CCC4)nc32)CC1 [Example 42]
500 to 1000 | NC(=O)[C@H]1CC[C@@H](n2c(Nc3c(Cl)cccc3Cl)nc3cnc(NC4CCC4)nc32)CC1 [Example 51]
> 1000 | CC(C)Nc1ncc2nc(Nc3c(Cl)cccc3Cl)n([C@H]3CC[C@@H](C(N)=O)CC3)c2n1 [Example 52]
< 250 | NC(=O)[C@H]1CC[C@@H](n2c(Nc3c(F)cc(F)cc3Cl)nc3cnc(NC4CCOCC4)nc32)CC1 [Example 53]
> 1000 | NC(=O)[C@H]1CC[C@@H](n2c(Nc3c(F)cc(F)cc3F)nc3cnc(NC4COC4)nc32)CC1 [Example 55, (1s,4s)-4-(2-(oxetan-3-ylamino)-8-(2,4,6-trifluorophenylamino)-9H-purin-9-yl)cyclohexanecarboxamide]
> 1000 | NC(=O)[C@H]1CC[C@@H](n2c(Nc3c(Cl)cccc3Cl)nc3cnc(NC4COC4)nc32)CC1 [Example 56, (1s,4s)-4-(8-(2,6-dichlorophenylamino)-2-(oxetan-3-ylamino)-9H-purin-9-yl)cyclohexanecarboxamide]
> 1000 | NC(=O)[C@H]1CC[C@@H](n2c(Nc3c(F)cccc3Cl)nc3cnc(NC4COC4)nc32)CC1 [Example 57, (1s,4s)-4-(8-(2-chloro-6-fluorophenylamino)-2-(oxetan-3-ylamino)-9H-purin-9-yl)cyclohexanecarboxamide]
500 to 1000 | NC(=O)[C@H]1CC[C@@H](n2c(Nc3ccc(Cl)cc3F)nc3cnc(NC4CCOCC4)nc32)CC1 [Example 60, (1s,4s)-4-(8-(4-chloro-2-fluorophenylamino)-2-(tetrahydro-2H-pyran-4-ylamino)-9H-purin-9-yl)cyclohexanecarboxamide]
> 1000 | NC(=O)[C@H]1CC[C@@H](n2c(Nc3cccc(F)c3Cl)nc3cnc(NC4CCOCC4)nc32)CC1 [Example 61, (1s,4s)-4-(8-(2-chloro-3-fluorophenylamino)-2-(tetrahydro-2H-pyran-4-ylamino)-9H-purin-9-yl)cyclohexanecarboxamide]
> 1000 | NC(=O)[C@H]1CC[C@@H](n2c(Nc3cccc(Cl)c3Cl)nc3cnc(NC4CCOCC4)nc32)CC1 [Example 62, (1s,4s)-4-(8-(2,3-dichlorophenylamino)-2-(tetrahydro-2H-pyran-4-ylamino)-9H-purin-9-yl)cyclohexanecarboxamide]
> 1000 | Cc1cccc(F)c1Nc1nc2cnc(NC3CCOCC3)nc2n1[C@H]1CC[C@@H](C(N)=O)CC1 [Example 63, (1s,4s)-4-(8-(2-fluoro-6-methylphenylamino)-2-(tetrahydro-2H-pyran-4-ylamino)-9H-purin-9-yl)cyclohexanecarboxamide]
> 1000 | NC(=O)[C@H]1CC[C@@H](n2c(Nc3cc(Cl)c(F)cc3F)nc3cnc(NC4CCOCC4)nc32)CC1 [Example 64, (1s,4s)-4-(8-(5-chloro-2,4-difluorophenylamino)-2-(tetrahydro-2H-pyran-4-ylamino)-9H-purin-9-yl)cyclohexanecarboxamide]
> 1000 | NC(=O)[C@H]1CC[C@@H](n2c(Nc3c(F)ccc(Cl)c3F)nc3cnc(NC4CCOCC4)nc32)CC1 [Example 67, (1s,4s)-4-(8-(3-chloro-2,6-difluorophenylamino)-2-(tetrahydro-2H-pyran-4-ylamino)-9H-purin-9-yl)cyclohexanecarboxamide]
> 1000 | Cc1cccc(Nc2nc3cnc(NC4CCOCC4)nc3n2[C@H]2CC[C@@H](C(N)=O)CC2)c1Cl [Example 69, (1s,4s)-4-(8-(2-chloro-3-methylphenylamino)-2-(tetrahydro-2H-pyran-4-ylamino)-9H-purin-9-yl)cyclohexanecarboxamide]
250 to 500 | NC(=O)[C@H]1CC[C@@H](n2c(Nc3ccc(Cl)c(F)c3F)nc3cnc(NC4CCOCC4)nc32)CC1 [Example 72, (1s,4s)-4-(8-(4-chloro-2,3-difluorophenylamino)-2-(tetrahydro-2H-pyran-4-ylamino)-9H-purin-9-yl)cyclohexanecarboxamide]
250 to 500 | NC(=O)[C@H]1CC[C@@H](n2c(Nc3c(Cl)cc(Cl)cc3Cl)nc3cnc(N[C@@H]4CCOC4)nc32)CC1 [Example 76, (1S,4s)-4-(2-((R)-tetrahydrofuran-3-ylamino)-8-(2,4,6-trichlorophenylamino)-9H-purin-9-yl)cyclohexanecarboxamide]
> 1000 | Cc1c(Cl)ccc(F)c1Nc1nc2cnc(NC3CCOCC3)nc2n1[C@H]1CC[C@@H](C(N)=O)CC1 [Example 79, (1s,4s)-4-(8-(3-chloro-6-fluoro-2-methylphenylamino)-2-(tetrahydro-2H-pyran-4-ylamino)-9H-purin-9-yl)cyclohexanecarboxamide]
